Experiments:
[1] = biological target: T1, rSAL3 (Staphylococcus aureus lipase 3, SAL3) (Staphylococcus aureus, UniProt A0A0H2XHH9); experiment: LC-MS/MS loss of OAG without oleic acid release; also protein lipid overlay binding; assay type: biochemical; conditions: 2 h, 37 C, PBS; 2 ug/mL OAG; hydrolysis at the sn-2 acetate inferred
T1 construct: gene SAUSA300_0641

[2] = biological target: T1, rSAL3 (Staphylococcus aureus lipase 3, SAL3); experiment: p-nitrophenol release at […] nm; assay type: biochemical; conditions: 2 mM ester, 100 mM Tris HCl, 100 mM NaCl, pH 7, 37 C

T1 sequence (A0A0H2XHH9 entry or part of it): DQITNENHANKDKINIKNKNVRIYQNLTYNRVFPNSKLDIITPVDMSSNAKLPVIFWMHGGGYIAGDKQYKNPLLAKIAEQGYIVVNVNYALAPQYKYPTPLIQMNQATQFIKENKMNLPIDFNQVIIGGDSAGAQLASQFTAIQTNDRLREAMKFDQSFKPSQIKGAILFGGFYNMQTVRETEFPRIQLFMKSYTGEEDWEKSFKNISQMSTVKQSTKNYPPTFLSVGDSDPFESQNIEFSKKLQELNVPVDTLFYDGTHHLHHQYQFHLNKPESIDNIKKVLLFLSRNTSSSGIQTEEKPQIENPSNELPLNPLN

| SMILES | LC-MS/MS loss of OAG without oleic acid release; also protein lipid overlay bind [1] | specific activity [2] |
| --- | --- | --- |
| CCCCCCCC/C=C\CCCCCCCC(=O)OCC(CO)OC(C)=O (centres unmarked) [1-oleoyl 2-acetyl glycerol] | marked reduction in the substrate only in reactions containing WT rSAL3 |  |
| CCCC(=O)Oc1ccc([N+](=O)[O-])cc1 [pNP-C4, paranitrophenol butyrate] |  | Alanine substitution mutations introduced in rSAL3MUT abolished the activity against pNP-C4 |

Reference: PMC8496776, “Staphylococcus aureus Lipase 3 (SAL3) is a surface-associated lipase that hydrolyzes short chain fatty acids” (PLoS ONE, 2021)
